Measurements from US7741472B2, “Polynucleotide containing a phosphate mimetic” (Roche Diagnostics Operations, Inc., priority 2005, dated 2010).
Strand notation (5' to 3'): a small letter for the sugar, then the base; units joined by * are phosphorothioate-linked, units joined directly phosphodiester-linked; [ ] holds rarer units or linkages, { } end groups; capitals alone tell only the bases. [RhoB] = phosphoramidate linkage P=N-S(O)2-rhodamine-B replacing P=O; d = 2'-deoxy (DNA); {P} = phosphate

How the values were obtained:
[1] = tested on: human Factor V DNA; assay: Real time PCR with modified primers (crossing point); type: biochemical; details: LIGHTCYCLER 1.2, primer combinations SEQ ID NO: 1 / SEQ ID NO: 2, 640 nm channel
Experimental: A quantitative real time PCR of human Factor V DNA was carried out on a LIGHTCYCLER 1.2 instrument (Roche Diagnostics GmbH) in order to analyse the effect of phosphate mimetics on primer elongation. The P═N-pPh-NAc mimetic which was introduced at different positions of a primer pair used for amplification of human Factor V DNA. The modified primers were, synthesized according to example 4. Purification was done by the Reversed Phase chromatography of example 3 in the Trityl on mode. Detritylation was performed by treating with 80% acetic acid for 20 min.
This primers were used in combination with a pair of fluorescein/LIGHTCYCLER Red 640 FRET hybridization probes according to example 6. The Fluorescein probe and the 5′ LIGHTCYCLER Red 640 probe (SEQ ID NO: 3 and 4) were kept constant. Various combinations of modified and unmodified primers were tested. As reference unmodified primers were used. The effect on the crossing point which is a measure for the amplification efficiency was evaluated.
The real time monitoring was carried out over 45 cycles using the 2nd derivative threshold method in which, the fluorescence signal was measured in a detection channel that is specific for the LIGHTCYCLER Red 640 emission (at 640 nm) and the arithmetic background correction mode was used to normalize the initial signal.
The absolute fluorescence signals are measured as above in the 640 nm channel and subsequently the first derivative was calculated from this. The crossing points are shown in the following table as a measure for the amplification efficiency when using different modified primers.

[2] = tested on: factor V DNA; assay: Real time PCR of factor V DNA with fluorescein/lissamine FRET hybridization probes; type: biochemical; details: LIGHTCYCLER 2.0, 610 nm channel, unmodified fluorescein donor probe
Experimental: Primers were used in combination with a pair of fluorescein/lissamine FRET hybridization probes where Lissamine (rhodamineB) acted as a FRET acceptor. Quantification curves were recorded and the cp value was determined as a function of the concentration of the target nucleic acid.
(§1) A teal time PCR and melting curve analysis were carried out according to example 6 for the amplification of 10^4 and 10^6 copies of a factor V DNA fragment. A fluorescein donor probe according to example 6 (SEQ ID NO: 4) which was not further modified and a FRET acceptor probe according to example 7b (SEQ ID NO: 3) were used for this.
The fluorescence signal was measured in the 610 nm detection channel. The 610/530 background correction mode was used to normalize the raw signal. A cp value of 22 was determined for 10^6 copies and a cp of 26 was determined for 10^4 copies.

[3] = tested on: factor V DNA fragment, wild type; assay: Melting curve analysis with lissamine acceptor probe, wild type; type: binding; details: 10^6 copies
Experimental: as §1
(§2) The melting point for the wild type was determined as 64.69° C. and 56.24° C. was determined as the melting point for the mutant (10^6 copies).

[4] = tested on: factor V DNA fragment, mutant; assay: Melting curve analysis with lissamine acceptor probe, mutant; type: binding; details: 10^6 copies
Experimental: as §1, §2

Substance	Cp (crossing point, measure for the amplification efficiency) [1]	cp value ([2]; 10^4 copies)	cp value ([2]; 10^6 copies)	melting point for the wild type [3] [°C]	melting point for the mutant [4] [°C]
5′ GAGAGACATCGCCTCTGGGCT p1A / 5′ TGTTATCACACTGGTGCTAA: primer combination; p1 is a P = N-pPh-NAc mimetic	20.80	–	–	–	–
FRET acceptor probe according to example 7b: SEQ ID NO: 3 FRET acceptor probe; p* = P = NS(O)2-rhodamine-B (DNA dA[RhoB]dGdGdGdAdTdCdTdGdCdTdCdTdTdAdCdAdGdAdTdTdAdGdAdAdGdTdAdGdTdCdCdTdAdTdT-{P})	–	26	22	64.69	56.24
